# Data taken from patent publication US4650785A, “Pharmaceutical composition having an excellent absorption property” (Ajinomoto Company Incoporated, priority 1982, dated 1987).
# Where a SMILES comes first, the peptide text is derived from it. [ ]: non-standard residue; d: D form. The star is where a group is joined. Cbz = O=C(OCc1ccccc1)*
# Experiments:
# [1] = Usefulness as medicine absorption promoter (statement, test not described)
# Female ICR-CD-1 mice = assay: Oral administration of absorption promoter mixed with insulin to mice: decrease in blood glucose and elevation of blood insulin versus control; type: in vivo; set-up: Degree of Elevation of Blood Insulin: unit not given here; conditions: oral, mice, vs control group
# Method: The absorption promoter samples listed in Table 2 were dissolved or suspended in 0.5% CMC-0.05M tris-HCl buffers (pH: 7.8) and the solutions or suspensions were mixed with aqueous insulin solution. Female ICR-CD-1 mice 5 to 7 weeks old were orally administered predetermined amounts of the mixtures. A predetermined duration later, the percent decrease in blood glucose and the degree of elevation of blood insulin as compared with the control group were measured. The symbol "Z" in the structural formulas in the table represents a benzyloxycarbonyl group. The upper figures in the columns "effectiveness" represent the percent decrease in blood glucose and the lower parenthesized figures indicate the degree of elevation in blood insulin.
# Female CD-1(ICR) Mice = assay: Toxicity studies of phenylalanine derivatives (LD50); type: in vivo
# Description: Toxicity Studies of Phenylalanine Derivatives with Oral IN Potentiating Activity in Female CD-1(ICR) Mice are as follows:
# Phenylalanine derivatives were suspended in 0.5% CMC.
# [2] = sample 6.0 mg/10 g with insulin 2.5 U/10 g body weight, 30 minutes
# [3] = sample 6.0 mg/10 g with insulin 2.5 U/10 g body weight, 60 minutes
# [4] = sample 12.5 mg/10 g with insulin 2.5 U/10 g body weight, 30 minutes
# [5] = sample 12.5 mg/10 g with insulin 2.5 U/10 g body weight, 60 minutes
# [6] = sample 3.0 mg/10 g with insulin 2.5 U/10 g body weight, 30 minutes
# [7] = sample 3.0 mg/10 g with insulin 2.5 U/10 g body weight, 60 minutes
# [8] = female CD-1(ICR) mice, suspended in 0.5% CMC
# [9] = sample 1.5 mg/10 g with insulin 2.5 U/10 g body weight, 30 minutes
# [10] = sample 1.5 mg/10 g with insulin 2.5 U/10 g body weight, 60 minutes
compound,measurement,setting,value
CC(=O)N[C@@H](Cc1ccccc1)C(=O)O [N-acetylphenylalanine],usefulness as the absorption promoter,[1],not useful as the absorption promoter
N[C@@H](Cc1ccccc1)C(=O)O [Phenylalanine],usefulness as the absorption promoter,[1],not useful as the absorption promoter
"O=C(C=Cc1ccccc1)N[C@@H](Cc1ccccc1)C(=O)O [Sample S-3, N-cinnamoyl-L-phenylalanine]",Decrease in Blood Glucose (%),Female ICR-CD-1 mice; [2],84.4%
same,Degree of Elevation of Blood Insulin,Female ICR-CD-1 mice; [2],34.2
same,Decrease in Blood Glucose (%),Female ICR-CD-1 mice; [3],84.3%
same,Degree of Elevation of Blood Insulin,Female ICR-CD-1 mice; [3],68.1
same,LD50 (mg/kg),"Female CD-1(ICR) Mice; mouse, in vivo","> 2,500 mg/kg"
"O=C(COc1ccccc1)N[C@@H](Cc1ccccc1)C(=O)O [Sample S-5, N-phenoxyacetyl-L-phenylalanine]",Decrease in Blood Glucose (%),Female ICR-CD-1 mice; [4],57.9%
same,Degree of Elevation of Blood Insulin,Female ICR-CD-1 mice; [4],88.5
same,Decrease in Blood Glucose (%),Female ICR-CD-1 mice; [5],33.5%
same,Degree of Elevation of Blood Insulin,Female ICR-CD-1 mice; [5],18.0
same,LD50 (mg/kg),"Female CD-1(ICR) Mice; mouse, in vivo","> 4,000 mg/kg"
"O=C(N[C@@H](Cc1ccccc1)C(=O)N[C@@H](Cc1ccccc1)C(=O)O)OCc1ccccc1 [Sample S-7, N-benzyloxycarbonyl-L-phenylalanyl-L-phenylalanine] (Cbz-Phe-Phe-OH)",Decrease in Blood Glucose (%),Female ICR-CD-1 mice; [6],70.0%
same,Degree of Elevation of Blood Insulin,Female ICR-CD-1 mice; [6],7.72
same,Decrease in Blood Glucose (%),Female ICR-CD-1 mice; [7],40.6%
same,Degree of Elevation of Blood Insulin,Female ICR-CD-1 mice; [7],9.35
same,LD50 (mg/kg),Female CD-1(ICR) Mice; [8],"> 3,000 mg/kg"
"O=C(N[C@@H](Cc1ccccc1)C(=O)N[C@@H](Cc1ccc(O)cc1)C(=O)O)OCc1ccccc1 [Sample S-10, N-benzyloxycarbonyl-L-phenylalanyl-L-tyrosine] (Cbz-Phe-Tyr-OH)",Decrease in Blood Glucose (%),Female ICR-CD-1 mice; [2],61.5%
same,Degree of Elevation of Blood Insulin,Female ICR-CD-1 mice; [2],41.9
same,Decrease in Blood Glucose (%),Female ICR-CD-1 mice; [3],43.4%
same,Degree of Elevation of Blood Insulin,Female ICR-CD-1 mice; [3],4.85
same,LD50 (mg/kg),Female CD-1(ICR) Mice; [8],"> 3,000 mg/kg"
"O=C(COc1cccc2ccccc12)N[C@@H](Cc1ccccc1)C(=O)O [Sample S-11, N-[(1-naphthoxy)acetyl]-L-phenylalanine]",Decrease in Blood Glucose (%),Female ICR-CD-1 mice; [2],54.0%
same,Degree of Elevation of Blood Insulin,Female ICR-CD-1 mice; [2],11.8
same,Decrease in Blood Glucose (%),Female ICR-CD-1 mice; [3],59.7%
same,Degree of Elevation of Blood Insulin,Female ICR-CD-1 mice; [3],5.07
same,LD50 (mg/kg),"Female CD-1(ICR) Mice; mouse, in vivo","> 4,000 mg/kg"
"O=C(COc1ccc2ccccc2c1)N[C@@H](Cc1ccccc1)C(=O)O [Sample S-12, N-[(2-naphthoxy)acetyl]-L-phenylalanine]",Decrease in Blood Glucose (%),Female ICR-CD-1 mice; [2],50.8%
same,Degree of Elevation of Blood Insulin,Female ICR-CD-1 mice; [2],6.05
same,Decrease in Blood Glucose (%),Female ICR-CD-1 mice; [3],66.8%
same,Degree of Elevation of Blood Insulin,Female ICR-CD-1 mice; [3],5.62
same,LD50 (mg/kg),"Female CD-1(ICR) Mice; mouse, in vivo","> 4,000 mg/kg"
"O=C(COc1ccc(Cl)cc1)N[C@@H](Cc1ccccc1)C(=O)O [Sample S-13, N-[(4-chlorophenoxy)acetyl]-L-phenylalanine]",Decrease in Blood Glucose (%),Female ICR-CD-1 mice; [9],31.9%
same,Degree of Elevation of Blood Insulin,Female ICR-CD-1 mice; [9],43.4
same,Decrease in Blood Glucose (%),Female ICR-CD-1 mice; [10],18.5%
same,Degree of Elevation of Blood Insulin,Female ICR-CD-1 mice; [10],9.82
same,LD50 (mg/kg),"Female CD-1(ICR) Mice; mouse, in vivo","> 3,500 mg/kg"
"O=C(N[C@@H](Cc1ccccc1)C(=O)O)OCc1ccccc1 [Sample S-15, N-benzyloxycarbonyl-L-phenylalanine]",Decrease in Blood Glucose (%),Female ICR-CD-1 mice; [6],37.5%
same,Degree of Elevation of Blood Insulin,Female ICR-CD-1 mice; [6],3.43
same,Decrease in Blood Glucose (%),Female ICR-CD-1 mice; [7],60.7%
same,Degree of Elevation of Blood Insulin,Female ICR-CD-1 mice; [7],2.36
same,LD50 (mg/kg),Female CD-1(ICR) Mice; [8],"> 2,750 mg/kg"
"COc1ccc(COC(=O)N[C@@H](Cc2ccccc2)C(=O)O)cc1 [Sample S-17, N-(4-methoxybenzyloxycarbonyl)-L-phenylalanine]",Decrease in Blood Glucose (%),Female ICR-CD-1 mice; [6],64.8%
same,Degree of Elevation of Blood Insulin,Female ICR-CD-1 mice; [6],14.4
same,Decrease in Blood Glucose (%),Female ICR-CD-1 mice; [7],50.6%
same,Degree of Elevation of Blood Insulin,Female ICR-CD-1 mice; [7],21.2
same,LD50,Female CD-1(ICR) Mice; [8],750 mg/kg
"O=C(N[C@H](Cc1ccccc1)C(=O)O)OCc1ccccc1 [Sample S-18, N-benzyloxycarbonyl-D-phenylalanine]",Decrease in Blood Glucose (%),Female ICR-CD-1 mice; [2],52.3%
same,Degree of Elevation of Blood Insulin,Female ICR-CD-1 mice; [2],6.79
same,Decrease in Blood Glucose (%),Female ICR-CD-1 mice; [3],67.2%
same,Degree of Elevation of Blood Insulin,Female ICR-CD-1 mice; [3],10.6
same,LD50 (mg/kg),Female CD-1(ICR) Mice; [8],"> 4,000 mg/kg"
"O=C(N[C@@H](Cc1ccccc1)C(=O)N[C@H](Cc1ccccc1)C(=O)O)OCc1ccccc1 [Sample S-21, N-benzyloxycarbonyl-L-phenylalanyl-D-phenylalanine] (Cbz-Phe-[dF]-OH)",Decrease in Blood Glucose (%),Female ICR-CD-1 mice; [2],42.6%
same,Degree of Elevation of Blood Insulin,Female ICR-CD-1 mice; [2],14.9
same,Decrease in Blood Glucose (%),Female ICR-CD-1 mice; [3],32.7%
same,Degree of Elevation of Blood Insulin,Female ICR-CD-1 mice; [3],5.26
"O=C(C=Cc1ccc(Cl)cc1)N[C@@H](Cc1ccccc1)C(=O)O [Sample S-24, N-(4-chlorocinnamoyl)-L-phenylalanine]",Decrease in Blood Glucose (%),Female ICR-CD-1 mice; [9],37.1%
same,Degree of Elevation of Blood Insulin,Female ICR-CD-1 mice; [9],5.46
same,Decrease in Blood Glucose (%),Female ICR-CD-1 mice; [10],27.4%
same,Degree of Elevation of Blood Insulin,Female ICR-CD-1 mice; [10],3.04
"O=C(C=Cc1ccc(Cl)cc1)N[C@H](Cc1ccccc1)C(=O)O [Sample S-25, N-(4-chlorocinnamoyl)-D-phenylalanine]",Decrease in Blood Glucose (%),Female ICR-CD-1 mice; [9],34.9%
same,Decrease in Blood Glucose (%),Female ICR-CD-1 mice; [10],29.5%
"Cc1ccc(C=CC(=O)N[C@@H](Cc2ccccc2)C(=O)O)cc1 [Sample S-27, N-(4-methylcinnamoyl)-L-phenylalanine]",Decrease in Blood Glucose (%),Female ICR-CD-1 mice; [9],61.5%
same,Degree of Elevation of Blood Insulin,Female ICR-CD-1 mice; [9],7.76
same,Decrease in Blood Glucose (%),Female ICR-CD-1 mice; [10],34.4%
same,Degree of Elevation of Blood Insulin,Female ICR-CD-1 mice; [10],1.0
"O=C(C=Cc1cccc(C(F)(F)F)c1)N[C@@H](Cc1ccccc1)C(=O)O [Sample S-30, N-(3-trifluoromethylcinnamoyl)-L-phenylalanine]",Decrease in Blood Glucose (%),Female ICR-CD-1 mice; [6],48.8%
same,Decrease in Blood Glucose (%),Female ICR-CD-1 mice; [7],44.4%
"O=C(N[C@@H](Cc1ccccc1)C(=O)O)C(F)=Cc1ccccc1 [Sample S-31, N-(α-fluorocinnamoyl)-L-phenylalanine]",Decrease in Blood Glucose (%),Female ICR-CD-1 mice; [6],33.5%
same,Decrease in Blood Glucose (%),Female ICR-CD-1 mice; [7],72.5%
"COc1cccc(C=CC(=O)N[C@@H](Cc2ccccc2)C(=O)N[C@@H](Cc2ccccc2)C(=O)O)c1 [Sample S-32, N-(3-methoxycinnamoyl)-L-phenylalanyl-L-phenylalanine]",Decrease in Blood Glucose (%),Female ICR-CD-1 mice; [7],23.8%
same,Degree of Elevation of Blood Insulin,Female ICR-CD-1 mice; [7],4.55
"Cc1ccc(S(=O)(=O)N[C@@H](Cc2ccccc2)C(=O)O)cc1 [Sample S-33, N-(4-toluenesulfonyl)-L-phenylalanine]",Decrease in Blood Glucose (%),Female ICR-CD-1 mice; [2],51.6%
same,Degree of Elevation of Blood Insulin,Female ICR-CD-1 mice; [2],18.1
same,Decrease in Blood Glucose (%),Female ICR-CD-1 mice; [3],21.4%
same,Degree of Elevation of Blood Insulin,Female ICR-CD-1 mice; [3],6.48
"O=C(C=Cc1cccc(C(F)(F)F)c1)N[C@H](Cc1ccccc1)C(=O)O [Sample S-36, N-(3-trifluoromethylcinnamoyl)-D-phenylalanine]",Decrease in Blood Glucose (%),Female ICR-CD-1 mice; [6],52.0%
same,Decrease in Blood Glucose (%),Female ICR-CD-1 mice; [7],49.1%
